Patent US12297171B2, “EP2 antagonist compounds” (Reservoir Neuroscience, Inc., priority 2021, dated 2025)

Tests used:
[1] = Human liver microsome stability; type: in vitro ADME; settings: human liver microsomes 0.5 mg/mL, 37° C., 60 minutes; for half-life at 2 μM: read-out: T1/2 (microsomal); for microsomal CLint at 2 μM: read-out: in vitro CLint (microsomal)
Description: The tested compound was incubated in duplicate with human liver microsomes (0.5 mg/mL) at 37° C. These incubations were carried out at a final test article concentration of 2 μM over a total incubation period of 60 minutes. Samples were taken at 0, 15, 30, 45 and 60 min and the reaction terminated by addition of 4 volumes of acetonitrile containing internal standard (100 nM alprazolam, 200 nM imipramine, 200 nM labetalol and 2 μM ketoprofen). Diclofenac was used as a positive control in this study. The samples were analyzed by UPLC-MS/MS to determine the concentration of the test compound and the percent remaining, intrinsic clearance (in vitro CLint) and half-life (t1/2) values were calculated.
(§1) Chromatographic analyses were performed on a Shimadzu UPLC apparatus (Kyoto, Japan) consisting of a gradient pump (model LC-30AD), an automatic injector (model HTC PAL System) and an on-line degasser (model DGU-20A5R). Detection was a triple quadrupole tandem mass spectrometer equipped with a turbo ion spray interface (API 4000/Triple Quad 4500/Triple Quad 5500/Triple Quad 6500). Data acquisition and integration were carried out with LC-MS software (Analyst 1.6) linked directly to the LC-MS/MS system. Chromatographic separations were achieved on a XSelect Hss T3 2.5μ (2.1×30 mm) Column. The mobile phase was 0.1% formic acid in water (A) and 0.1% formic acid in acetonitrile (B). The flow rate was 1.0 mL/min and column was maintained at 40° C.
(§2) Half-life (T1/2) data is measured in minutes, and in Table B2, in both microsomal and hepatic assays, the data is grouped into categories of: • A T1/2=1000+ • B T1/2=500 to 1000 • C T1/2=100 to 500 • D T1/2<100
(§3) In vitro clearance (CLint) data is measured in μL/min/mg prot, and in Table B2, in both microsomal and hepatic assays, the data is grouped into categories of: • A CLint<1 • B CLint=1 to 10 • C CLint=10 to 20 • D CLint=20+

[2] = Human hepatocyte stability; type: in vitro ADME; settings: human hepatocytes 0.5×10^6 cells/mL, 120 minutes; for half-life at 1 μM: read-out: T1/2 (hepatic); for microsomal CLint at 1 μM: read-out: in vitro CLint (hepatic)
Description: The tested compound was incubated in duplicate with incubation media (Williams' Medium E with 1× GlutaMAX) containing human hepatocytes (0.5×10^6 cells/mL). These incubations were carried out at a final test concentration of 1 μM over a total incubation period of 120 minutes. Samples were taken at 0, 15, 30, 60, 90 and 120 min and the reaction was terminated by addition of acetonitrile containing internal standard (100 nM alprazolam, 200 nM labetalol, 200 nM caffeine and 200 nM diclofenac). Verapamil was used as the positive control in this study. The samples were analyzed by UPLC-MS/MS to determine the concentration of the tested compound and the percentage remaining, intrinsic clearance (in vitro CLint) and half-life (t1/2) values were calculated.
as §1, §2, §3

EP2 receptor = target: T1, EP2 receptor (Homo sapiens, UniProt P43116); experiment: EP2 potency assay (cAMP TR-FRET, LANCE Ultra cAMP kit, antagonism of prostaglandin E2 at EC80); type: cell-based; settings: CHO-K1 cells transfected with EP2 receptor
T1 construct: expressed in transfected cells; host or cells: CHO-K1 cells (ATCC), transiently transfected with FuGENE 6
Description: Compound potency was measured using a cAMP TR-FRET assay.
CHO-K1 cells (ATCC) were seeded at a density of 9.75×10^5 in 6 cm plates, and then on the following day cell media was changed to Opti-Mem I reduced serum media (Gibco), and transfected with a plasmid for expression of the EP2 receptor (the target receptor of interest), using the FuGENE 6 Transfection reagent (Promega). After 6 hours incubation, the cell media was replaced with F12 medium supplemented with 10% FBS and 100 U/ml Pen-Strep. 24 hours after transfection, cells were harvested and seeded at a density of 3000 cells/well in a 384 well plate to perform the cAMP assay, using the LANCE Ultra cAMP assay kit (PerkinElmer).
For each test compound of interest, 10 nl/well of serially diluted test compound was added to each well, resulting in a range of 10 serially diluted compound concentrations from 10000 nM to 0.038 nM, with duplicate wells for each concentration. Plates were then centrifuged at 1000 rpm for 1 min, agitated at 600 rpm at R.T. for 2 min, and incubated at 25° C. for 5 min. The reference agonist, prostaglandin E2 (MCE), was added to each well at the appropriate concentration to reach its EC80 value. Plates were then centrifuged at 1000 rpm for 1 min, agitated at 600 rpm at R.T. for 2 min, and incubated at 25° C. for 30 min.
To measure levels of cAMP, 5 μl/well of Eu-cAMP working solution and 5 μl/well of Ulight-anti-cAMP working solution were added to each well, and plate was centrifuged at 1000 rpm for 1 min, agitated at 600 rpm at R.T. for 2 min, and incubated at 25° C. for 15 min. Levels of TR-FRET fluorescence were measured in each well using an EnVision microplate reader (excitation wavelength=337 nm and emission wavelength=615 and 665 nm). A dose-response curve was prepared by plotting percent inhibition for each compound concentration, and then IC50 was calculated by fitting a curve to the plotted values and extrapolating the IC50 concentration.
Potency data is grouped into categories of AA (IC50<100 nM); A (IC50=100 to 500 nM); B (IC50=500 nM to 1 μM); C (IC50=1 μM to 5 μM); and D (IC50>5 μM).

T1 sequence (P43116 whole entry): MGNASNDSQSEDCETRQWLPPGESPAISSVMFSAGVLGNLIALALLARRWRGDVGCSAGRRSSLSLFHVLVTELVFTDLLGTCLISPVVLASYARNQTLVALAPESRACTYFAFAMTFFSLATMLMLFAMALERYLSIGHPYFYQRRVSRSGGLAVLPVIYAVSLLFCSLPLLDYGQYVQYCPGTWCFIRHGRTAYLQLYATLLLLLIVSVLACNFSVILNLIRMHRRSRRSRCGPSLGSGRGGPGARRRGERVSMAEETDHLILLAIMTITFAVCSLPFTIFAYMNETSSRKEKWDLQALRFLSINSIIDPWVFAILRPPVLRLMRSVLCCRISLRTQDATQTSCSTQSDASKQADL

half-life at 2 μM [1] [h]	microsomal CLint at 2 μM [1] [µL/min/mg]	half-life at 1 μM [2] [h]	microsomal CLint at 1 μM [2] [µL/min/mg]	IC50 (EP2 receptor) [nM]	SMILES
8.33 to 16.7	1 to 10	1.67 to 8.33	1 to 10	–	COc1ccc(C(=O)N2CCC(COc3ccc(-c4ccc(C#N)cc4)cc3)(C(=O)O)C2)cc1 (centres unmarked) [Ref, reference compound]
> 16.7	< 1	> 16.7	< 1	< 100	COc1ccc(C(=O)N2CCC(COc3ccc(-c4ccc(C#N)cc4)cc3)(C(=O)NS(C)(=O)=O)C2)cc1 (centres unmarked) [Compound 4-19, 3-(((4′-cyano-[1,1′-biphenyl]-4-yl)oxy)methyl)-1-(4-methoxybenzoyl)-N-(methylsulfonyl)pyrrolidine-3-carboxamide]
1.67 to 8.33	1 to 10	8.33 to 16.7	1 to 10	100 to 500	COc1ccc(C(=O)N2CCC(COc3ccc(-c4ccc(C#N)cc4)cc3)(C(=O)NS(=O)(=O)C(F)(F)F)C2)cc1 (centres unmarked) [Compound 4-24, 3-[({4′-cyano-[1,1′-biphenyl]-4-yl}oxy)methyl]-1-(4-methoxybenzoyl)-N-trifluoromethanesulfonylpyrrolidine-3-carboxamide]
